Values after ≈ are worked out from the molar mass of the structure shown.
Experiments:
[1] = test system: Bacillus subtilis (ATCC43639); assay: Microtitre plate assay, IC90 for bacterial growth; assay type: cell-based; conditions: for IC90: Bacillus subtilis, ATCC43639, 90% inhibitory concentration for bacterial growth, read-out: IC90 BSU 43639; for IC90 BSU 43639: 90% inhibitory concentration for bacterial growth
Description: (§1) The bacteria used in this study were grown overnight in flasks containing 100 ml Mueller-Hinton Broth (Becton Dickinson—cat. no. 275730) in sterile de-ionized water, with shaking, at 37° C. Stocks (0.5 ml/tube) were stored at 70° C. until use. Bacteria titrations were performed in microtiter plates and colony forming units (CFUs) were determined. In general, an inoculum level of approximately 100 CFUs was used for susceptibility testing.
(§2) Anti bacterial Susceptibility Testing: IC90 Determination
(§3) Flat-bottom, sterile 96-well plastic microtiter plates were filled with 180 μl of sterile deionized water, supplemented with 0.25% BSA. Subsequently, stock solutions (7.8× final test concentration) of compounds were added in 45 μl volumes in column 2. Serial five-fold dilutions (45 μl in 180 μl) were made directly in the microtiter plates from column 2 to reach column 11. Untreated control samples with (column 1) and without (column 12) inoculum were included in each microtiter plate. Depending on the bacteria type, approximately 10 to 60 CFU per well of bacteria inoculum (100 TCID50), in a volume of 100 μl in 2.8× Mueller-Hinton broth medium, was added to the rows A to H, except column 12. The same volume of broth medium without inoculum was added to column 12 in row A to H. The cultures were incubated at 37° C. for 24 hours under a normal atmosphere (incubator with open air valve and continuous ventilation). At the end of incubation, one day after inoculation, the bacterial growth was quantitated fluorometrically. Therefore resazurin (0.6 mg/ml) was added in a volume of 20 μl to all wells 3 hours after inoculation, and the plates were re-incubated overnight. A change in colour from blue to pink indicated the growth of bacteria. The fluorescence was read in a computer-controlled fluorometer (Cytofluor Biosearch) at an excitation wavelength of 530 nm and an emission wavelength of 590 nm. The % growth inhibition achieved by the compounds was calculated according to standard methods. The IC90 (expressed in μg/ml) was defined as the 90% inhibitory concentration for bacterial growth.

[2] = test system: Enterococcus faecalis (ATCC29212); assay: Microtitre plate assay, IC90 for bacterial growth; assay type: cell-based; conditions: for IC90 EFA 29212: 90% inhibitory concentration for bacterial growth; for IC90: Enterococcus faecalis, ATCC29212, 90% inhibitory concentration for bacterial growth, read-out: IC90 EFA 29212
Description: as §1, §2, §3

[3] = test system: Listeria monocytogenes (ATCC49594); assay: Microtitre plate assay, IC90 for bacterial growth; assay type: cell-based; conditions: for IC90: Listeria monocytogenes, ATCC49594, 90% inhibitory concentration for bacterial growth, read-out: IC90 LMO 49594; for IC90 LMO 49594: 90% inhibitory concentration for bacterial growth
Description: as §1, §2, §3

[4] = test system: Pseudomonas aeruginosa (ATCC27853); assay: Microtitre plate assay, IC90 for bacterial growth; assay type: cell-based; conditions: for IC90 PAE 27853: 90% inhibitory concentration for bacterial growth; for IC90: Pseudomonas aeruginosa, ATCC27853, 90% inhibitory concentration for bacterial growth, read-out: IC90 PAE 27853
Description: as §1, §2, §3

[5] = test system: Staphylococcus aureus (ATCC25923); assay: Microtitre plate assay, IC90 for bacterial growth; assay type: cell-based; conditions: for IC90: Staphylococcus aureus, ATCC25923, 90% inhibitory concentration for bacterial growth, read-out: IC90 STA 25923; for IC90 STA 25923: 90% inhibitory concentration for bacterial growth
Description: as §1, §2, §3

[6] = test system: Staphylococcus aureus (ATCC29213); assay: Microtitre plate assay, IC90 for bacterial growth; assay type: cell-based; conditions: 90% inhibitory concentration for bacterial growth, 24 hours at 37° C., resazurin; for IC90: Staphylococcus aureus, ATCC29213, 24 h, read-out: IC90 STA 29213
Description: as §1, §2, §3

[7] = test system: Streptococcus mutans (ATCC33402); assay: Microtitre plate assay, IC90 for bacterial growth; assay type: cell-based; conditions: for IC90: Streptococcus mutans, ATCC33402, 90% inhibitory concentration for bacterial growth, read-out: IC90 SMU 33402; for IC90 SMU 33402: 90% inhibitory concentration for bacterial growth
Description: as §1, §2, §3

[8] = test system: Streptococcus pneumoniae (ATCC6305); assay: Microtitre plate assay, IC90 for bacterial growth; assay type: cell-based; conditions: for IC90 SPN 6305: 90% inhibitory concentration for bacterial growth; for IC90: Streptococcus pneumoniae, ATCC6305, 90% inhibitory concentration for bacterial growth, read-out: IC90 SPN 6305
Description: as §1, §2, §3

[9] = test system: Streptococcus pyogens (ATCC8668); assay: Microtitre plate assay, IC90 for bacterial growth; assay type: cell-based; conditions: for IC90 SPY 8668: 90% inhibitory concentration for bacterial growth; for IC90: Streptococcus, ATCC8668, 90% inhibitory concentration for bacterial growth, read-out: IC90 SPY 8668
Description: as §1, §2, §3

[10] = test system: methicilline resistant Staphylococcus aureus (MRSA) (a clinical isolate from the University of Antwerp); assay: Microtitre plate assay, IC90 for bacterial growth; assay type: cell-based; conditions: 90% inhibitory concentration for bacterial growth; for IC90: Staphylococcus aureus, MRSA, read-out: IC90 STA RMETHIC
Description: as §1, §2, §3

[11] = test system: Enterococcus faecalis (ATCC14506); assay: Microtitre plate assay, IC90 for bacterial growth; assay type: cell-based; conditions: 90% inhibitory concentration for bacterial growth; for IC90: read-out: IC90 EFA 14506
Description: as §1, §2, §3

[12] = test system: Escherichia coli (ATCC1403); assay: Microtitre plate assay, IC90 for bacterial growth; assay type: cell-based
Description: as §1, §2, §3

[13] = test system: Escherichia coli (ATCC25922); assay: Microtitre plate assay, IC90 for bacterial growth; assay type: cell-based; conditions: 90% inhibitory concentration for bacterial growth, read-out: IC90 ECO 25922
Description: as §1, §2, §3

[14] = test system: Escherichia coli (ATCC35218); assay: Microtitre plate assay, IC90 for bacterial growth; assay type: cell-based; conditions: 90% inhibitory concentration for bacterial growth
Description: as §1, §2, §3

[15] = test system: Staphylococcus aureus (ATCC43300); assay: Microtitre plate assay, IC90 for bacterial growth; assay type: cell-based; conditions: 90% inhibitory concentration for bacterial growth
Description: as §1, §2, §3

Row | Compound | IC90 [1] | IC90 EFA 29212 [2] | IC90 [3] | IC90 PAE 27853 [4] | IC90 [5] | IC90 STA 29213 [6] | IC90 SPN 6305 [8] | IC90 SPY 8668 [9] | IC90 [10] | melting point | IC90 [11] | IC90 [2] | IC90 [4] | IC90 [6] | IC90 [9] | IC90 BSU 43639 [1] | IC90 LMO 49594 [3] | IC90 STA 25923 [5] | IC90 SMU 33402 [7] | IC90 STA RMETHIC [10] | other results
1 | COc1nc2ccc(Br)cc2cc1C(c1ccccc1)C1(c2cccc3ccccc23)CCN(C)CO1 (single isomer, unassigned) [Compound 1] | 44 µg/mL (≈ 79.5 µM) | 55.4 µg/mL (≈ 100 µM) | 44 µg/mL (≈ 79.5 µM) | 44.0 µg/mL (≈ 79.5 µM) | 55.4 µg/mL (≈ 100 µM) | 55.4 µg/mL (≈ 100 µM) | 5.5 µg/mL (≈ 9.94 µM) | 44.0 µg/mL (≈ 79.5 µM) | 55.4 µg/mL (≈ 100 µM) | 112 °C |  |  |  |  |  |  |  |  |  |  | IC90 [7]: 44 µg/mL (≈ 79.5 µM)
2 | COc1nc2ccc(Br)cc2cc1C(c1ccccc1)C1(C2=CC=CCC2)CCN(C)CO1 (single isomer, unassigned) [Compound 8] | 12.7 µg/mL (≈ 25.1 µM) |  | 12.7 µg/mL (≈ 25.1 µM) |  | 12.7 µg/mL (≈ 25.1 µM) |  |  |  | 12.7 µg/mL (≈ 25.1 µM) | 168 °C | 40 µg/mL (≈ 79.1 µM) | 12.7 µg/mL (≈ 25.1 µM) | 10 µg/mL (≈ 19.8 µM) | 12.7 µg/mL (≈ 25.1 µM) | 12.7 µg/mL (≈ 25.1 µM) |  |  |  |  |  | IC90 [8]: 12.7 µg/mL (≈ 25.1 µM)
3 | COc1ccc2nc(OC)c(C(c3ccccc3)C3(c4cccc5ccccc45)CCN(C)CO3)cc2c1 (single isomer, unassigned) [Compound 10] |  | 12.7 µg/mL (≈ 25.2 µM) |  | 12.7 µg/mL (≈ 25.2 µM) |  | 12.7 µg/mL (≈ 25.2 µM) | 1.1 µg/mL (≈ 2.18 µM) | 10.1 µg/mL (≈ 20 µM) |  |  |  |  |  |  |  | 2.5 µg/mL (≈ 4.95 µM) | 10.1 µg/mL (≈ 20 µM) | 12.7 µg/mL (≈ 25.2 µM) | 12.7 µg/mL (≈ 25.2 µM) | 50.5 µg/mL (≈ 100 µM) | 
4 | COc1nc2ccc(C)cc2cc1C(c1ccccc1)C1(c2cccc3ccccc23)CCN(C)CO1 (single isomer, unassigned) [Compound 11] |  | 48.9 µg/mL (≈ 100 µM) |  | 48.9 µg/mL (≈ 100 µM) |  | 48.9 µg/mL (≈ 100 µM) | 4.9 µg/mL (≈ 10 µM) | 19.5 µg/mL (≈ 39.9 µM) |  |  |  |  |  |  |  | 48.9 µg/mL (≈ 100 µM) | 48.9 µg/mL (≈ 100 µM) | 48.9 µg/mL (≈ 100 µM) | 48.9 µg/mL (≈ 100 µM) | 48.9 µg/mL (≈ 100 µM) | 
5 | COc1nc2ccc(Cl)cc2cc1C(c1ccccc1)C1(c2cccc3ccccc23)CCN(C)CO1 (single isomer, unassigned) [Compound 14] | 12.8 µg/mL (≈ 25.1 µM) |  | 12.8 µg/mL (≈ 25.1 µM) |  | 12.8 µg/mL (≈ 25.1 µM) |  |  |  | 12.8 µg/mL (≈ 25.1 µM) | 189 °C | 12.8 µg/mL (≈ 25.1 µM) | 12.8 µg/mL (≈ 25.1 µM) | 12.8 µg/mL (≈ 25.1 µM) | 12.8 µg/mL (≈ 25.1 µM) | 12.8 µg/mL (≈ 25.1 µM) |  |  |  |  |  | IC90 [8]: 12.8 µg/mL (≈ 25.1 µM)
6 | COc1nc2ccc(Cl)cc2cc1C(c1ccccc1)C1(c2cccc3ccccc23)CC[N+](C)(C)CO1.[I-] (single isomer, unassigned) [Compound 15] |  | 2.1 µg/mL |  | 9.3 µg/mL |  | 1.86 µg/mL | 2.3 µg/mL | 1.9 µg/mL |  | 211 °C |  |  |  |  |  | 2.1 µg/mL | 2.1 µg/mL | 2.1 µg/mL | 1.9 µg/mL | 1.9 µg/mL | IC90 EFA 14506 [11]: 2.1 µg/mL; IC90 ECO 1403 ([12]; 90% inhibitory concentration for bacterial growth): 10.5 µg/mL; IC90 [13]: 10.5 µg/mL; IC90 ECO 35218 [14]: 41.6 µg/mL; IC90 STA 43300 [15]: 9.3 µg/mL
7 | COc1nc2ccc(Cl)cc2cc1C(c1ccccc1)C1(c2cccc3ccccc23)CC[N+](C)(C)CO1.[I-] (single isomer, unassigned) [Compound 16] |  |  | 1.7 µg/mL |  | 1.9 µg/mL |  | 5.2 µg/mL |  | 2.1 µg/mL | 195 °C | 2.1 µg/mL | 2.6 µg/mL | 10.5 µg/mL | 1.9 µg/mL | 1.9 µg/mL | 10.5 µg/mL |  |  |  |  | IC90 ([12]; Escherichia coli, ATCC1403, 90% inhibitory concentration for bacterial growth, read-out: IC90 ECO 1403): 13.2 µg/mL; IC90 ([14]; read-out: IC90 ECO 35218): 41.6 µg/mL; IC90 STA 43300 [15]: 41.6 µg/mL; IC90 [7]: 2.1 µg/mL
